Measurements reported in patent US20240099967A1, “INHALABLE COMPOSITION OF CLOFAZIMINE AND METHODS OF USE THEREOF” (priority 2017, published 2024).

Tests used:
[1] = Geometric particle size distribution by HELOS laser diffraction with RODOS dispersion; type: physicochemical; details: averaged n = 3
[2] = tested on: Mycobacterium leprae, Mycobacterium avium complex (MAC), and M. tuberculosis; details: against mycobacterium such as M. leprae; cited from earlier work
[3] = Sabnis et al., 2015; cited from earlier work
J774.A1 macrophages = assay: Flow cytometric quantification of clofazimine uptake and biotransformation to liquid crystals; type: cell-based, murine

| SMILES | Span [1] | X10 ([1]; first column) | X10 ([1]; second column) | X10 ([1]; third column) | minimum inhibitory concentration (MIC) [2] | clofazimine solution in methanol that can be formed [3] | cell proliferation/viability compared to control (J774.A1 cells) | cells fluorescent at 660 nm emission (biotransformation to liquid crystals) (J774.A1 macrophages; J774.A1, 24 hours exposure) | cells containing drug, fluorescence at 610 nm emission (crystalline clofazimine) (J774.A1 macrophages; J774.A1, 24 hours exposure, 10,000 cells) |
| --- | --- | --- | --- | --- | --- | --- | --- | --- | --- |
| CC(C)N=c1cc2n(-c3ccc(Cl)cc3)c3ccccc3nc-2cc1Nc1ccc(Cl)cc1 [clofazimine, N,5-bis(4-chlorophenyl)-3-(1-methylethylimino)-5H-phenazin-2-amine] | 2.62 | 1.55 μm | 7.90 μm | 21.96 μm | 0.125 to 2 µg/mL | 0.1% | – | – | – |
| CC(C)/N=c1\cc2n(-c3ccc(Cl)cc3)c3ccccc3nc-2cc1Nc1ccc(Cl)cc1 [solubilized clofazimine] | – | – | – | – | – | – | significant decrease | 0.21% | 2.48% |
